From the NIST ThermoML archive (doi:10.1016/j.fluid.2013.07.012)
± gives the expanded uncertainty stated by the source.

Test: xn = mol fraction of the nth substance listed
Conditions: 101 kPa, Liquid, Direct current cell with electrodes

CCN(CC)CCO.Cl [2-(diethylamino)ethanol hydrochloride] + OCC(O)CO
electrical conductivity [S/m]
Conditions | x1 = 0.2 | x1 = 0.25 | x1 = 0.34
298.15 K | 0.0487 ± 0.0013 | 0.0602 ± 0.0016 | 0.075 ± 0.002
303.15 K | 0.078 ± 0.001 | 0.0958 ± 0.0011 | 0.118 ± 0.0019
308.15 K | 0.11 ± 0.0014 | 0.104 ± 0.0013 | 0.164 ± 0.0019
313.15 K | 0.139 ± 0.0017 | 0.156 ± 0.0022 | 0.207 ± 0.0022
318.15 K | 0.188 ± 0.002 | 0.211 ± 0.0022 | 0.2716 ± 0.0027
323.15 K | 0.2357 ± 0.0018 | 0.264 ± 0.0027 | 0.3381 ± 0.0024
328.15 K | 0.2716 ± 0.0019 | 0.3426 ± 0.003 | 0.3903 ± 0.0031
333.15 K | 0.3246 ± 0.0026 | 0.4086 ± 0.003 | 0.4878 ± 0.0038
338.15 K | 0.3962 ± 0.0029 | 0.4916 ± 0.0034 | 0.5754 ± 0.0033
343.15 K | 0.4646 ± 0.0028 | 0.5748 ± 0.0032 | 0.6521 ± 0.004
348.15 K | 0.5335 ± 0.003 | 0.6474 ± 0.0028 | 0.7754 ± 0.0052
353.15 K | 0.6095 ± 0.0031 | 0.71 ± 0.01 | 0.9109 ± 0.0055

CCN(CC)CCO.Cl [2-(diethylamino)ethanol hydrochloride] + OCCO
electrical conductivity [S/m]
Conditions | x1 = 0.2 | x1 = 0.25 | x1 = 0.34
298.15 K | 0.5661 ± 0.0054 | 0.543 ± 0.0057 | 0.512 ± 0.006
303.15 K | 0.6994 ± 0.0052 | 0.6878 ± 0.0058 | 0.6627 ± 0.0057
308.15 K | 0.8245 ± 0.0054 | 0.8305 ± 0.0053 | 0.794 ± 0.005
313.15 K | 0.9699 ± 0.0067 | 0.9486 ± 0.0061 | 0.9283 ± 0.0061
318.15 K | 1.158 ± 0.0074 | 1.134 ± 0.0073 | 1.095 ± 0.0065
323.15 K | 1.341 ± 0.007 | 1.315 ± 0.0069 | 1.254 ± 0.0068
328.15 K | 1.509 ± 0.0075 | 1.477 ± 0.0071 | 1.433 ± 0.007
333.15 K | 1.714 ± 0.0074 | 1.666 ± 0.0073 | 1.616 ± 0.0069
338.15 K | 1.875 ± 0.0063 | 1.839 ± 0.0065 | 1.778 ± 0.0065
343.15 K | 2.029 ± 0.007 | 1.99 ± 0.01 | 1.942 ± 0.0072
348.15 K | 2.226 ± 0.0076 | 2.192 ± 0.0076 | 2.135 ± 0.0074
353.15 K | 2.405 ± 0.0072 | 2.367 ± 0.0071 | 2.31 ± 0.007

C[N+](C)(C)CCO.[Cl-] [choline chloride] + OCC(O)CO
electrical conductivity [S/m]
Conditions | x1 = 0.25 | x1 = 0.34 | x1 = 0.5
298.15 K | 0.1463 ± 0.0007 | 0.1749 ± 0.0013 | 0.1929 ± 0.0012
303.15 K | 0.1553 ± 0.0013 | 0.1951 ± 0.0017 | 0.219 ± 0.0025
308.15 K | 0.203 ± 0.0021 | 0.2549 ± 0.0022 | 0.3161 ± 0.003
313.15 K | 0.257 ± 0.002 | 0.3004 ± 0.0029 | 0.368 ± 0.003
318.15 K | 0.3112 ± 0.0026 | 0.399 ± 0.0043 | 0.4603 ± 0.0044
323.15 K | 0.3816 ± 0.0035 | 0.512 ± 0.004 | 0.5864 ± 0.0042
328.15 K | 0.4811 ± 0.0039 | 0.6046 ± 0.0042 | 0.6668 ± 0.0039
333.15 K | 0.5757 ± 0.0039 | 0.7187 ± 0.0043 | 0.7805 ± 0.0047
338.15 K | 0.6717 ± 0.0041 | 0.816 ± 0.004 | 0.898 ± 0.004
343.15 K | 0.7805 ± 0.0052 | 0.8955 ± 0.005 | 0.9863 ± 0.0052
348.15 K | 0.9286 ± 0.006 | 1.063 ± 0.0065 | 1.155 ± 0.0062
353.15 K | 1.08 ± 0.01 | 1.219 ± 0.0047 | 1.295 ± 0.0057

C[N+](C)(C)CCO.[Cl-] [choline chloride] + OCCO
electrical conductivity [S/m]
Conditions | x1 = 0.28 | x1 = 0.34 | x1 = 0.36
298.15 K | 0.832 ± 0.0094 | 0.733 ± 0.012 | 0.68 ± 0.0094
303.15 K | 1.067 ± 0.0075 | 1.019 ± 0.0082 | 0.9138 ± 0.0081
308.15 K | 1.207 ± 0.007 | 1.141 ± 0.0068 | 1.086 ± 0.0076
313.15 K | 1.413 ± 0.009 | 1.355 ± 0.009 | 1.294 ± 0.0079
318.15 K | 1.656 ± 0.0077 | 1.589 ± 0.0073 | 1.479 ± 0.0068
323.15 K | 1.798 ± 0.0094 | 1.718 ± 0.0087 | 1.633 ± 0.0072
328.15 K | 2.126 ± 0.013 | 2.023 ± 0.012 | 1.839 ± 0.0076
333.15 K | 2.425 ± 0.0078 | 2.299 ± 0.008 | 2.01 ± 0.0068
338.15 K | 2.515 ± 0.0041 | 2.42 ± 0.01 | 2.177 ± 0.0068
343.15 K | 2.627 ± 0.0053 | 2.56 ± 0.0058 | 2.347 ± 0.006
348.15 K | 2.78 ± 0.0049 | 2.707 ± 0.005 | 2.475 ± 0.005
353.15 K | 2.869 ± 0.004 | 2.8072 ± 0.0009 | 2.604 ± 0.0052

C[P+](c1ccccc1)(c1ccccc1)c1ccccc1.[Br-] [methyltriphenylphosphonium bromide] + OCC(O)CO
electrical conductivity [S/m]
Conditions | x1 = 0.2 | x1 = 0.25 | x1 = 0.34
298.15 K | 0.0116 ± 0.0006 | 0.0103 ± 0.0006 | 0.0062 ± 0.0006
303.15 K | 0.0198 ± 0.0006 | 0.0172 ± 0.0006 | 0.0124 ± 0.0006
308.15 K | 0.037 ± 0.001 | 0.0319 ± 0.0006 | 0.0186 ± 0.0006
313.15 K | 0.041 ± 0.001 | 0.0394 ± 0.0006 | 0.0277 ± 0.0006
318.15 K | 0.0607 ± 0.0006 | 0.0549 ± 0.0006 | 0.0405 ± 0.0006
323.15 K | 0.0816 ± 0.0006 | 0.0719 ± 0.0006 | 0.0496 ± 0.0006
328.15 K | 0.0965 ± 0.0006 | 0.0927 ± 0.0006 | 0.0701 ± 0.0006
333.15 K | 0.1233 ± 0.0006 | 0.1124 ± 0.0006 | 0.0858 ± 0.0006
338.15 K | 0.1608 ± 0.0006 | 0.1487 ± 0.0006 | 0.116 ± 0.001
343.15 K | 0.1971 ± 0.0007 | 0.1778 ± 0.0006 | 0.1493 ± 0.0006
348.15 K | 0.2874 ± 0.0007 | 0.2196 ± 0.0006 | 0.1811 ± 0.0006
353.15 K | 0.3594 ± 0.0007 | 0.2599 ± 0.0007 | 0.2154 ± 0.0006

C[P+](c1ccccc1)(c1ccccc1)c1ccccc1.[Br-] [methyltriphenylphosphonium bromide] + OCCO
electrical conductivity [S/m]
Conditions | x1 = 0.16 | x1 = 0.2 | x1 = 0.25
298.15 K | 0.194 ± 0.0026 | 0.156 ± 0.0026 | 0.109 ± 0.0021
303.15 K | 0.257 ± 0.002 | 0.219 ± 0.0023 | 0.16 ± 0.0018
308.15 K | 0.3103 ± 0.0026 | 0.2649 ± 0.0022 | 0.1914 ± 0.0019
313.15 K | 0.3845 ± 0.0027 | 0.3246 ± 0.0025 | 0.2502 ± 0.0022
318.15 K | 0.4437 ± 0.0025 | 0.3858 ± 0.0024 | 0.2964 ± 0.0016
323.15 K | 0.5072 ± 0.0037 | 0.4405 ± 0.0031 | 0.3265 ± 0.0028
328.15 K | 0.6279 ± 0.0041 | 0.5395 ± 0.0037 | 0.4307 ± 0.0038
333.15 K | 0.711 ± 0.004 | 0.6221 ± 0.0041 | 0.5129 ± 0.003
338.15 K | 0.8169 ± 0.0048 | 0.7423 ± 0.004 | 0.5797 ± 0.0036
343.15 K | 0.9496 ± 0.0043 | 0.8192 ± 0.0034 | 0.6923 ± 0.0032
348.15 K | 1.031 ± 0.003 | 0.9074 ± 0.0037 | 0.7372 ± 0.0025
353.15 K | 1.12 ± 0.0036 | 1.003 ± 0.0033 | 0.8114 ± 0.003
